In patent US20100298141A1, “SUBSTITUTED PYRIDINE N-OXIDE HERBICIDES” (E. I. DU PONT DE NEMOURS AND COMPANY, priority 2007, published 2010):

Experiments:
morningglory [1] = test: Test A pre-/postemergence greenhouse test; assay type: in vivo, Ipomoea spp.; settings: for Morningglory plant response rating: 0 to 100 scale
Outline: (§1)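 Test compounds in non-phytotoxic solvent with surfactant were applied as a preemergence soil spray to seeded loam/sand pots and, concurrently, postemergence to plants at 2–10 cm, one- to two-leaf stage. About ten days in greenhouse, then injury visually rated against untreated controls.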

wheat = test: Test C pre-/postemergence test; assay type: in vivo, Triticum aestivum; settings: for Wheat plant response rating: preemergence, scale 0 (no effect) to 100 (complete control)
Outline: (§2)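 Test chemicals were formulated with surfactant in a non-phytotoxic solvent and sprayed both on freshly planted seeds (preemergence) and on 1- to 4-leaf plants of 2–18 cm (postemergence). Flooded-paddy pots received compound directly into 3 cm of standing water, maintained for the test.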

giant foxtail = test: Test C pre-/postemergence test; assay type: in vivo, Setaria faberii
Outline: as §2

kochia = test: Test C pre-/postemergence test; assay type: in vivo, Kochia scoparia
Outline: as §2

bermudagrass = test: Test C pre-/postemergence test; assay type: in vivo, Cynodon dactylon
Outline: as §2

johnsongrass = test: Test C pre-/postemergence test; assay type: in vivo, Sorghum halepense
Outline: as §2

redroot pigweed = test: Test A pre-/postemergence greenhouse test; assay type: in vivo, Amaranthus retroflexus; settings: for Pigweed plant response rating: 0 to 100 scale
Outline: as §1

cocklebur = test: Test C pre-/postemergence test; assay type: in vivo, Xanthium strumarium
Outline: as §2

Italian ryegrass = test: Test C pre-/postemergence test; assay type: in vivo, Lolium multiflorum
Outline: as §2

wild oat = test: Test C pre-/postemergence test; assay type: in vivo, Avena fatua
Outline: as §2

yellow nutsedge = test: Test C pre-/postemergence test; assay type: in vivo, Cyperus esculentus
Outline: as §2

[2] = test system: common (oilseed) sunflower; test: Test C pre-/postemergence test; assay type: in vivo, Helianthus annuus; settings: for Sunflower plant response rating: preemergence, scale 0 (no effect) to 100 (complete control)
Outline: as §2

corn [3] = test: Test C pre-/postemergence test; assay type: in vivo, Zea mays
Outline: as §2

eastern black nightshade = test: Test C pre-/postemergence test; assay type: in vivo, Solanum ptycanthum
Outline: as §2

rice = test: Test C flooded paddy test; assay type: in vivo, Oryza sativa; settings: Flood
Outline: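 Compound was added to standing water 3 cm above soil, flood maintained, and plants held in a greenhouse before visual scoring against controls at 13 to 15 days.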

morningglory [4] = test: Test C pre-/postemergence test; assay type: in vivo, Ipomoea coccinea
Outline: as §2

corn [5] = test: Test A pre-/postemergence greenhouse test; assay type: in vivo, Zea mays; settings: for Corn plant response rating: 0 to 100 scale
Outline: as §1

[6] = Postemergence, 125 g ai/ha, 0 is no effect, 100 is complete control
[7] = Postemergence, 500 g ai/ha, 0 is no effect, 100 is complete control
[8] = Preemergence, 125 g ai/ha, 0 no effect, 100 complete control
[9] = Preemergence, 500 g ai/ha, 0 to 100 scale where 0 is no effect and 100 is complete control
[10] = 31 g ai/ha, Preemergence, scale 0 to 100
[11] = 62 g ai/ha, preemergence, scale 0 (no effect) to 100 (complete control)
[12] = preemergence, 125 g ai/ha, scale 0 (no effect) to 100 (complete control)

Cn1nc(C(F)(F)F)c(CS(=O)(=O)c2cccc[n+]2[O-])c1OC(F)F [Compound 4]
Morningglory plant response rating (morningglory [1]; [6]): 60 | Morningglory plant response rating (morningglory [1]; [7]): 70 | Morningglory plant response rating (morningglory [1]; [8]): 80 | Plant response rating, Morningglory (morningglory [1]; [9]): 90 | Wheat plant response rating (wheat; 62 g ai/ha): 20 | Plant response rating (0 to 100), Wheat (wheat; Preemergence, 250 g ai/ha): 50 | Wheat plant response rating (wheat; 125 g ai/ha): 20 | Foxtail, Giant plant response rating (giant foxtail; [10]): 90 | Foxtail, Giant plant response rating (giant foxtail; [11]): 100 | Plant response rating (0 to 100), Foxtail, Giant (giant foxtail; Preemergence, 250 g ai/ha): 100 | Foxtail, Giant plant response rating (giant foxtail; [12]): 100 | Kochia plant response rating (kochia; [10]): 0 | Kochia plant response rating (kochia; [11]): 100 | Plant response rating (0 to 100), Kochia (kochia; Preemergence, 250 g ai/ha): 100 | Kochia plant response rating (kochia; [12]): 100 | Bermudagrass plant response rating (bermudagrass; [10]): 100 | Bermudagrass plant response rating (bermudagrass; [11]): 100 | Plant response rating (0 to 100), Bermudagrass (bermudagrass; Preemergence, 250 g ai/ha): 100 | Bermudagrass plant response rating (bermudagrass; [12]): 100 | Johnsongrass plant response rating (johnsongrass; [10]): 95 | Johnsongrass plant response rating (johnsongrass; [11]): 95 | Plant response rating (0 to 100), Johnsongrass (johnsongrass; Preemergence, 250 g ai/ha): 100 | Johnsongrass plant response rating (johnsongrass; [12]): 100 | Pigweed plant response rating (redroot pigweed; [6]): 70 | Pigweed plant response rating (redroot pigweed; [7]): 80 | Pigweed plant response rating (redroot pigweed; [8]): 100 | Plant response rating, Pigweed (redroot pigweed; [9]): 100 | Cocklebur plant response rating (cocklebur; [10]): 0 | Cocklebur plant response rating (cocklebur; [11]): 0 | Plant response rating (0 to 100), Cocklebur (cocklebur; Preemergence, 250 g ai/ha): 0 | Cocklebur plant response rating (cocklebur; [12]): 0 | Ryegrass, Italian plant response rating (Italian ryegrass; [10]): 0 | Ryegrass, Italian plant response rating (Italian ryegrass; [11]): 60 | Plant response rating (0 to 100), Ryegrass, Italian (Italian ryegrass; Preemergence, 250 g ai/ha): 100 | Ryegrass, Italian plant response rating (Italian ryegrass; [12]): 100 | Oat, Wild plant response rating (wild oat; [10]): 10 | Oat, Wild plant response rating (wild oat; [11]): 50 | Plant response rating (0 to 100), Oat, Wild (wild oat; Preemergence, 250 g ai/ha): 70 | Oat, Wild plant response rating (wild oat; [12]): 65 | Nutsedge, Yellow plant response rating (yellow nutsedge; [10]): 85 | Nutsedge, Yellow plant response rating (yellow nutsedge; [11]): 100 | Plant response rating (0 to 100), Nutsedge, Yellow (yellow nutsedge; Preemergence, 250 g ai/ha): 100 | Nutsedge, Yellow plant response rating (yellow nutsedge; [12]): 100 | Sunflower plant response rating ([2]; 62 g ai/ha): 10 | Plant response rating (0 to 100), Sunflower ([2]; Preemergence, 250 g ai/ha): 80 | Sunflower plant response rating ([2]; 125 g ai/ha): 15 | Corn plant response rating (corn [3]; [10]): 0 | Corn plant response rating (corn [3]; [11]): 50 | Plant response rating (0 to 100), Corn (corn [3]; Preemergence, 250 g ai/ha): 70 | Corn plant response rating (corn [3]; [12]): 55 | Nightshade plant response rating (eastern black nightshade; [10]): 90 | Nightshade plant response rating (eastern black nightshade; [11]): 100 | Plant response rating (0 to 100), Nightshade (eastern black nightshade; Preemergence, 250 g ai/ha): 100 | Nightshade plant response rating (eastern black nightshade; [12]): 100 | Plant response rating, Rice (rice; 31 g ai/ha, scale 0 to 100 (0 no effect, 100 complete control)): 10 | Plant response rating, Rice (rice; 62 g ai/ha, scale 0 to 100, 0 no effect, 100 complete control, 13 to 15 days): 30 | Plant response rating, Rice (rice; 125 g ai/ha, scale 0 to 100, 0 no effect, 100 complete control, 13 to 15 days): 70 | Plant response rating, Rice (rice; 250 g ai/ha, scale 0 to 100 (0 no effect, 100 complete control)): 80 | Morningglory plant response rating (morningglory [4]; [10]): 0 | Morningglory plant response rating (morningglory [4]; [11]): 0 | Plant response rating (0 to 100), Morningglory (morningglory [4]; Preemergence, 250 g ai/ha): 100 | Morningglory plant response rating (morningglory [4]; [12]): 85 | Corn plant response rating (corn [5]; [6]): 30 | Corn plant response rating (corn [5]; [7]): 60 | Corn plant response rating (corn [5]; [8]): 20 | Plant response rating, Corn (corn [5]; [9]): 80
